# From US6239171A, “Tocotrienols and tocotrienol-like compounds and methods for their use” (Lipogenics, Inc., priority 1998, dated 2001)
# Assays:
# [1] = tested on: hypercholesterolemic swine; test: Total cholesterol, triglyceride and glucose concentrations in tissues of hypercholesterolemic swine; assay type: in vivo; conditions: control diet + 50 ppm, 42 days
# Protocol: Each group of three 5-month old swine was administered either a control diet or a control diet supplemented with 50 ppm of TRF or 50 ppm of an individual tocotrienol. […] After a 12 hour fast, serum and plasma samples were taken a 0 hrs, 21 days and 42 days from the start of the feeding period. After taking serum and plasma samples from the pigs at the end of the 42 day period, all of the swine were fasted for a total of 40 hours, followed by a 48 hour refeeding period. One swine from each group was sacrificed at that time and the liver, intestine, lung, heart, loin muscle, adipose tissue and ham muscle were removed.
# We next determined the effect of tocotrienols on the total cholesterol, triglyceride and glucose concentrations in various tissues of hypercholesterolemic swine.
# HMG-CoA reductase = target: T1, HMG-CoA reductase (Homo sapiens, UniProt P04035); test: Hepatic HMG-CoA reductase activity in chickens fed supplemented diets; assay type: in vivo, chicken; conditions: control diet + 50 ppm, 4 weeks
# T1 construct: hepatocytes isolated from livers of 8-week old female chickens; endogenous in cells; host or cells: primary chicken hepatocytes
# T1 sequence (P04035 1-888): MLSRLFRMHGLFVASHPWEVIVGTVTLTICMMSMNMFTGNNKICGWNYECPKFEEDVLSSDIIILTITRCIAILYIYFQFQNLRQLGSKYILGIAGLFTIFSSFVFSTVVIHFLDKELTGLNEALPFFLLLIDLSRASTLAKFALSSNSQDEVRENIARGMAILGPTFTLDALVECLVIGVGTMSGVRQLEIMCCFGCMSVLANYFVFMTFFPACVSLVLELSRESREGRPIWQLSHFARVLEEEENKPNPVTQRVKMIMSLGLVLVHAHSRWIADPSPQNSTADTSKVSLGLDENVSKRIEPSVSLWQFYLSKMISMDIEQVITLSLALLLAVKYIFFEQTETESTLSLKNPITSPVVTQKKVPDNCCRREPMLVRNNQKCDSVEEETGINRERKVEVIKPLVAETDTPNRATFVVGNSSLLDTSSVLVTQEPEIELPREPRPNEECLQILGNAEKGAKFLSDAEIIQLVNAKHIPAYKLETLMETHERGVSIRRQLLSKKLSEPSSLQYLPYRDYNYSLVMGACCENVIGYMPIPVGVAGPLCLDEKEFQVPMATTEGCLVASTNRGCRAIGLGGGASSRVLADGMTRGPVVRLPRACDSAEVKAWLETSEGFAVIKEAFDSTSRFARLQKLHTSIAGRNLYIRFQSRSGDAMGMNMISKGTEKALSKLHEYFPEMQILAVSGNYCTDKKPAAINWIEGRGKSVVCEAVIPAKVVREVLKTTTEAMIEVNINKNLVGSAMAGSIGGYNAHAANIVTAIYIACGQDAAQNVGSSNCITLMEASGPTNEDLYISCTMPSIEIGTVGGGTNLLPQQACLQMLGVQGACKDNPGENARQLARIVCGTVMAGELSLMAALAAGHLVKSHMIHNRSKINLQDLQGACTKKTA
# Protocol: This example measured the effects of the TRF and its components on the hepatic enzymatic activity of HMG-CoA reductase and cholesterol 7α-hydroxylase. […] The amount of feed consumed ranged from 11.19-11.60 g per chicken and the feeding period was 4 weeks. The birds were fasted for a period of 36 hours and refed for 48 hours prior to sacrifice (at 0800 hours).
smiles,measurement,setting,value
"CC(C)=CCC/C(C)=C/CC/C(C)=C/CCC1(C)CCc2cc(O)c(C)c(C)c2O1 (stereo not shown) [γ-T3, γ-tocotrienol, reference compound]","TOTAL CHOLESTEROL CONCENTRATION, Adipose Tissue",[1],94.55 mg/100 gm
same,"TOTAL CHOLESTEROL CONCENTRATION, Ham Muscle",[1],85.15 mg/100 gm
same,"TOTAL CHOLESTEROL CONCENTRATION, Heart",[1],56.68 mg/100 gm
same,"TOTAL CHOLESTEROL CONCENTRATION, Intestine",[1],187.06 mg/100 gm
same,"TOTAL CHOLESTEROL CONCENTRATION, Liver",[1],149.20 mg/100 gm
same,"TOTAL CHOLESTEROL CONCENTRATION, Loin Muscle",[1],103.48 mg/100 gm
same,"TOTAL CHOLESTEROL CONCENTRATION, Lung",[1],83.79 mg/100 gm
same,"TOTAL CHOLESTEROL, Adipose Tissue, percentage of control",[1],86.43%
same,"TOTAL CHOLESTEROL, Ham Muscle, percentage of control",[1],85.15%
same,"TOTAL CHOLESTEROL, Heart, percentage of control",[1],87.86%
same,"TOTAL CHOLESTEROL, Intestine, percentage of control",[1],86.81%
same,"TOTAL CHOLESTEROL, Liver, percentage of control",[1],74.01%
same,"TOTAL CHOLESTEROL, Loin Muscle, percentage of control",[1],86.51%
same,"TOTAL CHOLESTEROL, Lung, percentage of control",[1],82.36%
same,"TOTAL GLUCOSE CONCENTRATION, Adipose Tissue",[1],15.93 mg/100 gm
same,"TOTAL GLUCOSE CONCENTRATION, Ham Muscle",[1],52.10 mg/100 gm
same,"TOTAL GLUCOSE CONCENTRATION, Heart",[1],46.81 mg/100 gm
same,"TOTAL GLUCOSE CONCENTRATION, Intestine",[1],62.50 mg/100 gm
same,"TOTAL GLUCOSE CONCENTRATION, Liver",[1],383.68 mg/100 gm
same,"TOTAL GLUCOSE CONCENTRATION, Loin Muscle",[1],60.30 mg/100 gm
same,"TOTAL GLUCOSE CONCENTRATION, Lung",[1],63.08 mg/100 gm
same,"TOTAL GLUCOSE, Adipose Tissue, percentage of control",[1],86.86%
same,"TOTAL GLUCOSE, Ham Muscle, percentage of control",[1],96.80%
same,"TOTAL GLUCOSE, Heart, percentage of control",[1],95.05%
same,"TOTAL GLUCOSE, Intestine, percentage of control",[1],86.84%
same,"TOTAL GLUCOSE, Liver, percentage of control",[1],94.53%
same,"TOTAL GLUCOSE, Loin Muscle, percentage of control",[1],84.64%
same,"TOTAL GLUCOSE, Lung, percentage of control",[1],94.25%
same,"TOTAL TRIGLYCERIDES CONCENTRATION, Adipose Tissue",[1],391.58 mg/100 gm
same,"TOTAL TRIGLYCERIDES CONCENTRATION, Ham Muscle",[1],181.99 mg/100 gm
same,"TOTAL TRIGLYCERIDES CONCENTRATION, Heart",[1],142.72 mg/100 gm
same,"TOTAL TRIGLYCERIDES CONCENTRATION, Intestine",[1],351.33 mg/100 gm
same,"TOTAL TRIGLYCERIDES CONCENTRATION, Liver",[1],397.51 mg/100 gm
same,"TOTAL TRIGLYCERIDES CONCENTRATION, Loin Muscle",[1],201.65 mg/100 gm
same,"TOTAL TRIGLYCERIDES CONCENTRATION, Lung",[1],167.18 mg/100 gm
same,"TOTAL TRIGLYCERIDES, Adipose Tissue, percentage of control activity",[1],89.88%
same,"TOTAL TRIGLYCERIDES, Ham Muscle, percentage of control activity",[1],97.93%
same,"TOTAL TRIGLYCERIDES, Heart, percentage of control activity",[1],98.96%
same,"TOTAL TRIGLYCERIDES, Intestine, percentage of control activity",[1],98.24%
same,"TOTAL TRIGLYCERIDES, Liver, percentage of control activity",[1],92.58%
same,"TOTAL TRIGLYCERIDES, Loin Muscle, percentage of control activity",[1],91.79%
same,"TOTAL TRIGLYCERIDES, Lung, percentage of control activity",[1],97.22%
same,"HMG-CoA Reductase, percentage of control",HMG-CoA reductase,78.32%
